{"source": "PubChem BioAssay AID1918953", "about": "(Molecular Pharmacology Branch, DTP, NCI, 2023)", "system": "MDA-MB-231 complex spheroid viability", "experiment": "Anticancer human tumor MDA-MB-231/ATCC cell line growth inhibition;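 also: drug exposure lasted 7 days starting on day 3 of spheroid growth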", "details": "for viability, T/C: stronger effect = lower value", "how_it_was_run": "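Multicellular complex spheroids of tumor cells with human endothelial cells (HUVEC) and mesenchymal stem cells; the LSD1 inhibitor iadademstat was combined with standard-of-care or investigational agents. Top concentration at or near clinical Cmax, half-log dilutions; final DMSO ≤0.25%.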", "key": {"[1]": {"details": "curve of first compound, second compound 0.1 µM"}, "[2]": {"details": "curve of first compound, second compound 0.316 µM"}, "[3]": {"details": "curve of first compound, second compound 1 µM"}, "[4]": {"details": "curve of first compound, second compound 3.16 µM"}, "[5]": {"details": "curve of first compound, second compound 10 µM"}}, "note": "Values joined by “and” are separate entries in the source; they are usually repeats but may differ in a detail not shown here. Equal values may be shown once."}
{"smiles": "CCN(c1cc(-c2ccc(CN3CCOCC3)cc2)cc(C(=O)NCc2c(C)cc(C)[nH]c2=O)c1C)C1CCOCC1", "note": "+ NC1CC1c1ccc(-c2cccc(O)c2)cc1", "values": [{"measurement": "IC50", "setting": "[1]", "value": 143, "unit": "nM"}, {"measurement": "IC50", "setting": "[2]", "value": 99.7, "unit": "nM"}, {"measurement": "IC50", "setting": "[3]", "value": 99.7, "unit": "nM"}, {"measurement": "IC50", "setting": "[4]", "value": 92, "unit": "nM"}, {"measurement": "IC50", "setting": "[5]", "value": 13.1, "unit": "nM"}, {"measurement": "viability, T/C", "setting": "second compound 0.1 µM, first compound 0.00949 µM", "value": 89.6, "unit": "%"}, {"measurement": "viability, T/C", "setting": "second compound 0.1 µM, first compound 0.03 µM", "value": 82, "unit": "%"}, {"measurement": "viability, T/C", "setting": "second compound 0.1 µM, first compound 0.0949 µM", "value": 51.3, "unit": "%"}, {"measurement": "viability, T/C", "setting": "second compound 0.1 µM, first compound 0.3 µM", "value": 40, "unit": "%"}, {"measurement": "viability, T/C", "setting": "second compound 0.1 µM, first compound 0.949 µM", "value": 27.8, "unit": "%"}, {"measurement": "viability, T/C", "setting": "second compound 0.1 µM, first compound 3 µM", "value": 17.8, "unit": "%"}, {"measurement": "viability, T/C", "setting": "second compound 0.316 µM, first compound 0.00949 µM", "value": 73.1, "unit": "%"}, {"measurement": "viability, T/C", "setting": "second compound 0.316 µM, first compound 0.03 µM", "value": 70.2, "unit": "%"}, {"measurement": "viability, T/C", "setting": "second compound 0.316 µM, first compound 0.0949 µM", "value": 46.2, "unit": "%"}, {"measurement": "viability, T/C", "setting": "second compound 0.316 µM, first compound 0.3 µM", "value": 36.4, "unit": "%"}, {"measurement": "viability, T/C", "setting": "second compound 0.316 µM, first compound 0.949 µM", "value": 25.2, "unit": "%"}, {"measurement": "viability, T/C", "setting": "second compound 0.316 µM, first compound 3 µM", "value": 16.6, "unit": "%"}, {"measurement": "viability, T/C", "setting": "second compound 1 µM, first compound 0.00949 µM", "value": 68.2, "unit": "%"}, {"measurement": "viability, T/C", "setting": "second compound 1 µM, first compound 0.03 µM", "value": 69.7, "unit": "%"}, {"measurement": "viability, T/C", "setting": "second compound 1 µM, first compound 0.0949 µM", "value": 46.7, "unit": "%"}, {"measurement": "viability, T/C", "setting": "second compound 1 µM, first compound 0.3 µM", "value": 35.1, "unit": "%"}, {"measurement": "viability, T/C", "setting": "second compound 1 µM, first compound 0.949 µM", "value": 23.9, "unit": "%"}, {"measurement": "viability, T/C", "setting": "second compound 1 µM, first compound 3 µM", "value": 17.1, "unit": "%"}, {"measurement": "viability, T/C", "setting": "second compound 3.16 µM, first compound 0.00949 µM", "value": 72.5, "unit": "%"}, {"measurement": "viability, T/C", "setting": "second compound 3.16 µM, first compound 0.03 µM", "value": 71.6, "unit": "%"}, {"measurement": "viability, T/C", "setting": "second compound 3.16 µM, first compound 0.0949 µM", "value": 44.7, "unit": "%"}, {"measurement": "viability, T/C", "setting": "second compound 3.16 µM, first compound 0.3 µM", "value": 34.3, "unit": "%"}, {"measurement": "viability, T/C", "setting": "second compound 3.16 µM, first compound 0.949 µM", "value": 21.8, "unit": "%"}, {"measurement": "viability, T/C", "setting": "second compound 3.16 µM, first compound 3 µM", "value": 16.6, "unit": "%"}, {"measurement": "viability, T/C", "setting": "second compound 10 µM, first compound 0.00949 µM", "value": 52.6, "unit": "%"}, {"measurement": "viability, T/C", "setting": "second compound 10 µM, first compound 0.03 µM", "value": 43.1, "unit": "%"}, {"measurement": "viability, T/C", "setting": "second compound 10 µM, first compound 0.0949 µM", "value": 34.3, "unit": "%"}, {"measurement": "viability, T/C", "setting": "second compound 10 µM, first compound 0.3 µM", "value": 24.6, "unit": "%"}, {"measurement": "viability, T/C", "setting": "second compound 10 µM, first compound 0.949 µM", "value": 16.8, "unit": "%"}, {"measurement": "viability, T/C", "setting": "second compound 10 µM, first compound 3 µM", "value": 12.2, "unit": "%"}]}
{"smiles": "Cn1ncnc1C1c2n[nH]c(=O)c3cc(F)cc(c23)NC1c1ccc(F)cc1", "note": "(stereo not given) + NC1CCC(NC2CC2c2ccccc2)CC1", "values": [{"measurement": "IC50", "setting": "[1]", "value": "> 100", "unit": "nM"}, {"measurement": "IC50", "setting": "[2]", "value": "> 100", "unit": "nM"}, {"measurement": "IC50", "setting": "[3]", "value": "> 100", "unit": "nM"}, {"measurement": "IC50", "setting": "[4]", "value": "> 100", "unit": "nM"}, {"measurement": "IC50", "setting": "[5]", "value": "< 0.316", "unit": "nM"}, {"measurement": "viability, T/C", "setting": "second compound 0.1 µM, first compound 0.000316 µM", "value": 95.7, "unit": "%"}, {"measurement": "viability, T/C", "setting": "second compound 0.1 µM, first compound 0.001 µM", "value": 97.2, "unit": "%"}, {"measurement": "viability, T/C", "setting": "second compound 0.1 µM, first compound 0.00316 µM", "value": 92.5, "unit": "%"}, {"measurement": "viability, T/C", "setting": "second compound 0.1 µM, first compound 0.01 µM", "value": 81.9, "unit": "%"}, {"measurement": "viability, T/C", "setting": "second compound 0.1 µM, first compound 0.0316 µM", "value": 80.4, "unit": "%"}, {"measurement": "viability, T/C", "setting": "second compound 0.1 µM, first compound 0.1 µM", "value": 78.7, "unit": "%"}, {"measurement": "viability, T/C", "setting": "second compound 0.316 µM, first compound 0.000316 µM", "value": 95.4, "unit": "%"}, {"measurement": "viability, T/C", "setting": "second compound 0.316 µM, first compound 0.001 µM", "value": 95.6, "unit": "%"}, {"measurement": "viability, T/C", "setting": "second compound 0.316 µM, first compound 0.00316 µM", "value": 84.6, "unit": "%"}, {"measurement": "viability, T/C", "setting": "second compound 0.316 µM, first compound 0.01 µM", "value": 80.7, "unit": "%"}, {"measurement": "viability, T/C", "setting": "second compound 0.316 µM, first compound 0.0316 µM", "value": 77.7, "unit": "%"}, {"measurement": "viability, T/C", "setting": "second compound 0.316 µM, first compound 0.1 µM", "value": 75.2, "unit": "%"}, {"measurement": "viability, T/C", "setting": "second compound 1 µM, first compound 0.000316 µM", "value": 92.3, "unit": "%"}, {"measurement": "viability, T/C", "setting": "second compound 1 µM, first compound 0.001 µM", "value": 89.9, "unit": "%"}, {"measurement": "viability, T/C", "setting": "second compound 1 µM, first compound 0.00316 µM", "value": 87.8, "unit": "%"}, {"measurement": "viability, T/C", "setting": "second compound 1 µM, first compound 0.01 µM", "value": 81.3, "unit": "%"}, {"measurement": "viability, T/C", "setting": "second compound 1 µM, first compound 0.0316 µM", "value": 72.2, "unit": "%"}, {"measurement": "viability, T/C", "setting": "second compound 1 µM, first compound 0.1 µM", "value": 70.7, "unit": "%"}, {"measurement": "viability, T/C", "setting": "second compound 3.16 µM, first compound 0.000316 µM", "value": 70.8, "unit": "%"}, {"measurement": "viability, T/C", "setting": "second compound 3.16 µM, first compound 0.001 µM", "value": 68.9, "unit": "%"}, {"measurement": "viability, T/C", "setting": "second compound 3.16 µM, first compound 0.00316 µM", "value": 64.5, "unit": "%"}, {"measurement": "viability, T/C", "setting": "second compound 3.16 µM, first compound 0.01 µM", "value": 60.4, "unit": "%"}, {"measurement": "viability, T/C", "setting": "second compound 3.16 µM, first compound 0.0316 µM", "value": 59.1, "unit": "%"}, {"measurement": "viability, T/C", "setting": "second compound 3.16 µM, first compound 0.1 µM", "value": 60.9, "unit": "%"}, {"measurement": "viability, T/C", "setting": "second compound 10 µM, first compound 0.000316 µM", "value": 48.3, "unit": "%"}, {"measurement": "viability, T/C", "setting": "second compound 10 µM, first compound 0.001 µM", "value": 50.3, "unit": "%"}, {"measurement": "viability, T/C", "setting": "second compound 10 µM, first compound 0.00316 µM", "value": 48.9, "unit": "%"}, {"measurement": "viability, T/C", "setting": "second compound 10 µM, first compound 0.01 µM", "value": 42.2, "unit": "%"}, {"measurement": "viability, T/C", "setting": "second compound 10 µM, first compound 0.0316 µM", "value": 45.9, "unit": "%"}, {"measurement": "viability, T/C", "setting": "second compound 10 µM, first compound 0.1 µM", "value": 44.6, "unit": "%"}]}
{"smiles": "NC1CCC(NC2CC2c2ccccc2)CC1", "note": "(stereo not given)", "values": [{"measurement": "viability, T/C", "setting": "compound 0.1 µM", "value": "102% [middle of 25 runs]"}, {"measurement": "viability, T/C", "setting": "compound 0.316 µM", "value": "106% and 102%"}, {"measurement": "viability, T/C", "setting": "compound 1 µM", "value": "99.7% [middle of 25 runs]"}, {"measurement": "viability, T/C", "setting": "compound 10 µM", "value": "61% [middle of 23 runs]"}, {"measurement": "IC50", "setting": "compound alone, run of 01/18/2022", "value": "> 10000", "unit": "nM"}]}
